Test results taken from ChEMBL document CHEMBL1125947, “Triply-convergent syntheses of two homochiral arene-fused prostacyclin analogs related to U68,215” (Bioorg Med Chem Lett, 1991).

Organism: Homo sapiens
Assay: Compound was tested for inhibitory activity against collagen induced platelet aggregation
Type: functional

O=C(O)COc1cccc2c1C[C@H]1C[C@@H](O)[C@H](C#C[C@@H](O)C3CCCCC3)[C@H]1C2
IC50: 2.9 nM

O=C(O)COc1cccc2c1C[C@H]1C[C@@H](O)[C@H](C#C[C@@H](O)C3CCCCC3)[C@@H]1C2
IC50: 52 nM
